In data set [1] the target is T1, Protein-arginine deiminase type-3 (Homo sapiens) (UniProt Q9ULW8).
T1 sequence (whole entry): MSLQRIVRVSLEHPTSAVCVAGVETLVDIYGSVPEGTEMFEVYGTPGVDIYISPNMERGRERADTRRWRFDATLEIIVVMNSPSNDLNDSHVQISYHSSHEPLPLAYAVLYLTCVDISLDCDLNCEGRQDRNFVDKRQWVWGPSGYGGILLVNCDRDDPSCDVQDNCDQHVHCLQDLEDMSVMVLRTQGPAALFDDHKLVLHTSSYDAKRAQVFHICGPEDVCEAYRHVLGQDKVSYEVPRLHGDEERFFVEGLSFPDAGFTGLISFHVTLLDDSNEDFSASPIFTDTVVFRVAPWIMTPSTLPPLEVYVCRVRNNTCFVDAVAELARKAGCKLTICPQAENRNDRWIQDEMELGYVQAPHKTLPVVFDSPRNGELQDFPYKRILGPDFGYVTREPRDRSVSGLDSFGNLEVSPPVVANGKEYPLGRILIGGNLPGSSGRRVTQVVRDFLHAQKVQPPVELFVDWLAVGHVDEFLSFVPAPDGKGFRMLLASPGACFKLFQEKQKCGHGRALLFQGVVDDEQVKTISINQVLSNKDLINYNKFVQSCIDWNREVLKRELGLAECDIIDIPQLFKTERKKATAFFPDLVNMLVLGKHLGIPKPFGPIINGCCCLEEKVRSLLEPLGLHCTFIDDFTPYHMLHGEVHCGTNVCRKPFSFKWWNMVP
As to the kind of experiment: Inhibition of 6His-tagged recombinant human PAD3 expressed in Escherichia coli BL21-DE3 pLysS cells using N-benzoylated arginine ethyl ester hydrochloride as substrate assessed as ratio of Kinact/Ki preincubated for 30 mins followed by substrate addition and measured after 15 mins by […] assay. The conditions noted are these: time 45.0 min.

Data set [2] can be described thus: Toxicity in female BALB/c mouse implanted with mouse orthotopic 4T1-Luc cells assessed as reduction in body weight at 1.16 mg/kg, iv administered via tail vein every 2 days for 9 times for 17 days and measured every 2 days. The conditions noted are these: in vivo, 408 h, time 17 day. The data set is classed as organism-based.
Data set [3] can be described thus: Antitumor activity against mouse orthotopic 4T1-Luc cells implanted in female BALB/c mouse assessed as tumor growth inhibition at 1.16 mg/kg, iv administered via tail vein every 2 days for 9 times for 17 days and measured every 2 days relative to control. Format: functional. The conditions noted are these: 408 h, time 17 day, read-out: TGI.
Data set [4] can be described thus: Cytotoxicity against human MCF-10A cells assessed as inhibition of cell growth incubated for 48 hrs by MTT assay. The data set is classed as toxicity, cell-based.
Data set [5] deals with Protein-arginine deiminase type-2 (Homo sapiens, UniProt Q9Y2J8). As to the kind of experiment: Inhibition of PAD2 (unknown origin) using Nalpha-benzoyl-L-arginine ethyl ester as substrate preincubated for 60 mins followed by substrate addition and measured after 90 mins by colorimetric analysis.
Sequence of Protein-arginine deiminase type-2 (Q9Y2J8 whole entry): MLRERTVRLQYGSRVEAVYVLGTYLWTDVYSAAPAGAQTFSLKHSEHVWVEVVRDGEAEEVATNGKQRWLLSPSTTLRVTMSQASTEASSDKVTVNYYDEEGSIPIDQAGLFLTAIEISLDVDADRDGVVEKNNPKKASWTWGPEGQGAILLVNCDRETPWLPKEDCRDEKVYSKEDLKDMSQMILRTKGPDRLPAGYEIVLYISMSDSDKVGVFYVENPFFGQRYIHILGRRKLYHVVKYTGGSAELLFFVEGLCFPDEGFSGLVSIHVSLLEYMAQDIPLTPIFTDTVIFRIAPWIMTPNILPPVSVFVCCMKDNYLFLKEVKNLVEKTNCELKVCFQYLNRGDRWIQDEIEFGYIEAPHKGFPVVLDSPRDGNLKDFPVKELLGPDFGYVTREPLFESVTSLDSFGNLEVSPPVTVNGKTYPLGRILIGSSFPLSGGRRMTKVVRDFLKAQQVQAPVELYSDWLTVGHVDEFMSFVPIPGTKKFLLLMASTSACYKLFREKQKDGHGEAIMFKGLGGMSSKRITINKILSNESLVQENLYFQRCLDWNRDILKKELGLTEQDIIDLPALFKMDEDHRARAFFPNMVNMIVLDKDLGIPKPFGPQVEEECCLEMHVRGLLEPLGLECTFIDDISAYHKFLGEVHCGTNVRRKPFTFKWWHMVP
The next data set has as its system MDA-MB-468. The data set is described as follows: Antiproliferative activity against human MDA-MB-468 cells assessed as inhibition of cell growth incubated for 48 hrs by MTT assay. The data set is classed as functional, cell-based. The conditions noted are these: MDA-MB-468, 48 h. On the technique in general: Tetrazolium assays rely on reduction of a dye to a coloured formazan, in cell work by metabolically active cells.

Data set [6] has as its target Protein-arginine deiminase type-4 (Homo sapiens, UniProt Q9UM07). The data set is described as follows: Inhibition of PAD4 (unknown origin) using Nalpha-benzoyl-L-arginine ethyl ester as substrate preincubated for 60 mins followed by substrate addition and measured after 90 mins by colorimetric analysis.
The next data set concerns 4T1. As to the kind of experiment: Antiproliferative activity against mouse 4T1 cells assessed as inhibition of cell growth incubated for 48 hrs by MTT assay. The conditions noted are these: 4T1, 48 h. The data set is classed as functional, cell-based.

Where a name gives a salt, the structure may show the parent alone.

Sequence of Protein-arginine deiminase type-4 (Q9UM07 whole entry): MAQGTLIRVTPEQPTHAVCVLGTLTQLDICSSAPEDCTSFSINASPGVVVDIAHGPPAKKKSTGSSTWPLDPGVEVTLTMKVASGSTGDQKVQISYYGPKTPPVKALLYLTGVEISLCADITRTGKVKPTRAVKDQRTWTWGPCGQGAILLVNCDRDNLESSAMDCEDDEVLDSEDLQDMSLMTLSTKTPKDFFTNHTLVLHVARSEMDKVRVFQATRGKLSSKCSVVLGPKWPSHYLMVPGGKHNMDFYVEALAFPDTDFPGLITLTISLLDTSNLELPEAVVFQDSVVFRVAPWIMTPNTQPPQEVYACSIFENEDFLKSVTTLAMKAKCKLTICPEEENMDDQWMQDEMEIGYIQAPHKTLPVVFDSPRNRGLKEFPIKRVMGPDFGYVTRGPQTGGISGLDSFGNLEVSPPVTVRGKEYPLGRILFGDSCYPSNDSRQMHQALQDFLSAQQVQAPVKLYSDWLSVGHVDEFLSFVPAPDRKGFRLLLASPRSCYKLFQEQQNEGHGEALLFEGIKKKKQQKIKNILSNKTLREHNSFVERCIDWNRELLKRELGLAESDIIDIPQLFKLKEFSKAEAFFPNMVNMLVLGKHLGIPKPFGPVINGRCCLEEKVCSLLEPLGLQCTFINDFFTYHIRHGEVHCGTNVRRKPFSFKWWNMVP

For the molecule `N=C(CCl)NCCCC1NC(=O)N(Cc2cccc(-c3ccccc3Cl)c2)C1=O` (stereo not drawn), the Ratio in data set [1] is 15600 min⁻¹ M⁻¹.
Regarding `COc1cccc2c1C(=O)c1c(O)c3c(c(O)c1C2=O)C[C@@](O)(C(=O)CO)C[C@@H]3O[C@H]1C[C@H](N)[C@H](O)[C@H](C)O1` [DOXORUBICIN HYDROCHLORIDE], the Activity result in data set [2] is given as “Non-Toxic”. In data set [3], the inhibition in vivo at 1.16 mg/kg amounted to 54.6%.
In the case of `N=C(CCl)NCCC[C@H](NC(=O)c1cc2c([nH]c3ccccc32)c(-c2cccc([N+](=O)[O-])c2)n1)C(=O)NCc1ccccc1`, the IC50 (usually the concentration that inhibits the measured activity by half) at 48 h in data set [4] is 7.22 µM. Besides, the IC50 in data set [5] is greater than 10 µM; with MDA-MB-468, 13.8 µM; in data set [6], 2.03 µM; in the data set with 4T1 it was greater than 100 µM.
The like results for `N#Cc1ccc(-c2nc(C(=O)N[C@@H](CCCNC(=N)CCl)C(=O)NCc3ccccc3)cc3c2[nH]c2ccccc23)cc1` were, in that order, 11.1 µM, 3 µM, 4.36 µM, 1.61 µM and 18.3 µM.
In the case of `N=C(CCl)NCCC[C@H](NC(=O)c1c[nH]c2ccc(F)cc12)C(=O)NCc1ccccc1`, the half-maximal inhibitory concentration (IC50) at 48 h in data set [4] turned out to be 72.7 µM. The IC50 in data set [5] stood at 2.1 µM; with MDA-MB-468, 92 µM; in data set [6] it was 1.02 µM; in the data set with 4T1 it was 85.5 µM.
Regarding `N=C(CCl)NCCC[C@H](NC(=O)c1ccc2c(c1)NCCN2)C(=O)NCc1ccccc1`, the half-maximal inhibitory concentration (IC50) at 48 h in data set [4] is greater than 100 µM. For the same molecule, the IC50 in data set [5] is 1.93 µM; with MDA-MB-468, greater than 100 µM; in data set [6], 2.3 µM; with 4T1 it was greater than 100 µM.
For the molecule `CC(C)c1nc(C(=O)N[C@@H](CCCNC(=N)CCl)C(=O)NCc2ccccc2)cc2c1[nH]c1ccccc12`, in data set [4], the IC50 at 48 h amounted to 4.07 µM. For the same molecule, the 50% inhibitory concentration (IC50) in data set [5] came to 1.14 µM; with MDA-MB-468, 5.2 µM; in data set [6], 1.18 µM; in the data set with 4T1, 11.5 µM.
`COc1ccc(-c2nc(C(=O)N[C@@H](CCCNC(=N)CCl)C(=O)NCc3ccccc3)cc3c2[nH]c2ccccc23)cc1OC`: the 50% inhibitory concentration (IC50) at 48 h in data set [4] came out at 11.1 µM. Further, the IC50 in data set [5] was determined as 4.59 µM; with MDA-MB-468, 5.93 µM; in data set [6] it was 1.52 µM; in the data set with 4T1, 11.4 µM.
The like results for `N=C(CCl)NCCC[C@H](NC(=O)c1cc2c([nH]c3ccccc32)c(C2CC2)n1)C(=O)NCc1ccccc1` were, in that order, 4.37 µM, 1.27 µM, 4.88 µM, 0.62 µM and 12.2 µM.

Values taken from ChEMBL document CHEMBL5506043, “A β-Carboline Derivate PAD4 Inhibitor Reshapes Neutrophil Phenotype and Improves the Tumor Immune Microenvironment against Triple-Negative Breast Cancer” (J Med Chem, 2024).
